Where “and” joins values, the source holds several entries; their conditions need not be identical. Identical values can stand only once. Inconclusive results and toxic doses are left out. How the source made its calls: active means survival T/C of 150% or more; inactive means T/C below 125% in these data.
Tested on: CD2F1 mice, L1210 leukemia ip, survival T/C
Assay: NCI In Vivo Anticancer Drug Screen. Data for tumor model L1210 Leukemia (intraperitoneal) in CD2F1 (CDF1) mice
Conditions: higher = longer survival
Summary of the method: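 Antitumor effect is scored in animals hosting a serially transplanted tumor. Values compare compound-dosed animals against vehicle-only controls as a simple quotient.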

[1] = endpoint: mean survival time, dose: 100.0 mg/kg/injection, schedule: Q04DX003 (ip), vehicle: saline with Tween-80
[2] = endpoint: mean survival time, dose: 200.0 mg/kg/injection, schedule: Q04DX003 (ip), vehicle: saline with Tween-80
[3] = endpoint: mean survival time, dose: 400.0 mg/kg/injection, schedule: Q04DX003 (ip), vehicle: saline with Tween-80
[4] = endpoint: mean survival time, dose: 12.5 mg/kg/injection, schedule: Q01DX009 (ip), vehicle: Klucel (hydroxypropylcellulose) (HPC)
[5] = endpoint: mean survival time, dose: 25.0 mg/kg/injection, schedule: Q01DX009 (ip), vehicle: Klucel (hydroxypropylcellulose) (HPC)
[6] = endpoint: mean survival time, dose: 50.0 mg/kg/injection, schedule: Q01DX009 (ip), vehicle: Klucel (hydroxypropylcellulose) (HPC)
[7] = endpoint: mean survival time, dose: 100.0 mg/kg/injection, schedule: Q01DX009 (ip), vehicle: saline with Tween-80
[8] = endpoint: mean survival time, dose: 200.0 mg/kg/injection, schedule: Q01DX009 (ip), vehicle: saline with Tween-80
[9] = endpoint: mean survival time, dose: 400.0 mg/kg/injection, schedule: Q01DX009 (ip), vehicle: saline with Tween-80
[10] = endpoint: mean survival time, dose: 12.5 mg/kg/injection, schedule: Q01DX009 (ip), vehicle: saline with Tween-80
[11] = endpoint: mean survival time, dose: 25.0 mg/kg/injection, schedule: Q01DX009 (ip), vehicle: saline with Tween-80
[12] = endpoint: mean survival time, dose: 50.0 mg/kg/injection, schedule: Q01DX009 (ip), vehicle: saline with Tween-80
[13] = endpoint: mean survival time, dose: 50.0 mg/kg/injection, schedule: Q04DX002 (ip), vehicle: saline with Tween-80
[14] = endpoint: mean survival time, dose: 100.0 mg/kg/injection, schedule: Q04DX002 (ip), vehicle: saline with Tween-80
[15] = endpoint: mean survival time, dose: 200.0 mg/kg/injection, schedule: Q04DX002 (ip), vehicle: saline with Tween-80
[16] = endpoint: mean survival time, dose: 100.0 mg/kg/injection, schedule: Q01DX001 (ip), vehicle: saline
[17] = endpoint: mean survival time, dose: 200.0 mg/kg/injection, schedule: Q01DX001 (ip), vehicle: saline
[18] = endpoint: mean survival time, dose: 400.0 mg/kg/injection, schedule: Q01DX001 (ip), vehicle: saline
[19] = endpoint: mean survival time, dose: 100.0 mg/kg/injection, schedule: Q01DX009 (ip), vehicle: saline
[20] = endpoint: mean survival time, dose: 200.0 mg/kg/injection, schedule: Q01DX009 (ip), vehicle: saline

Measured: T/C

Cc1ccc(NC(=O)Nc2ccccc2C(F)(F)F)cc1NC(=O)Nc1ccccc1C(F)(F)F
inactive: [1] 96 % of control | [2] 98 % of control | [3] 104 % of control

CN=NC1(OC(C)=O)CCCC1
inactive: endpoint: mean survival time, dose: 3.12 mg/kg/injection, schedule: Q01DX009 (ip), vehicle: saline 109 % of control | endpoint: mean survival time, dose: 6.25 mg/kg/injection, schedule: Q01DX009 (ip), vehicle: saline 111 % of control | endpoint: mean survival time, dose: 12.5 mg/kg/injection, schedule: Q01DX009 (ip), vehicle: saline 118 % of control and 121 % of control | endpoint: mean survival time, dose: 25.0 mg/kg/injection, schedule: Q01DX009 (ip), vehicle: saline 105 % of control

CCCCCCCC/C=C/CCCCCCCCCCCCCCBr
inactive: [1] 104 % of control | [2] 98 % of control | [3] 93 % of control

CCC1OCC(C(Cl)CCl)O1 (configuration not stated)
inactive: [4] 94 % of control and 101 % of control | [5] 99 % of control and 102 % of control | [6] 95 % of control and 96 % of control | endpoint: mean survival time, dose: 100.0 mg/kg/injection, schedule: Q01DX009 (ip), vehicle: Klucel (hydroxypropylcellulose) (HPC) 94 % of control and 107 % of control | endpoint: mean survival time, dose: 200.0 mg/kg/injection, schedule: Q01DX009 (ip), vehicle: Klucel (hydroxypropylcellulose) (HPC) 90 % of control and 91 % of control | endpoint: mean survival time, dose: 400.0 mg/kg/injection, schedule: Q01DX009 (ip), vehicle: Klucel (hydroxypropylcellulose) (HPC) 87 % of control

c1ccc(NC2=NCCO2)cc1
inactive: [1] 93 % of control | [2] 98 % of control

CC(=O)Nc1ccc(/C=C(\C#N)c2ccc(C)cc2)cc1
inactive: [7] 89 % of control | [8] 91 % of control | [9] 100 % of control

Cn1nc(-c2ccccc2)nc1[N+](=O)[O-]
inactive: [10] 90 % of control and 103 % of control | [11] 97 % of control | [12] 103 % of control and 106 % of control | [7] 121 % of control and 100 % of control

Cc1cc2nc3c(nc2cc1C)-c1ccccc1C3=O
inactive: [1] 94 % of control | [2] 93 % of control | [3] 94 % of control

CCOC(=O)CCSCCC(=O)OCC
inactive: [1] 100 % of control | [2] 96 % of control | [3] 98 % of control

Cc1nn(-c2ccccc2)c2c1C(=O)NC2Cc1ccccc1 (configuration not stated)
inactive: [13] 103 % of control | [14] 100 % of control | [15] 100 % of control

CC1(C(=O)Sc2ccccc2)OC1(C)c1ccccc1 (configuration not stated)
inactive: endpoint: mean survival time, dose: 100.0 mg/kg/injection, schedule: Q01DX001 (ip), vehicle: Klucel (hydroxypropylcellulose) (HPC) 97 % of control | endpoint: mean survival time, dose: 200.0 mg/kg/injection, schedule: Q01DX001 (ip), vehicle: Klucel (hydroxypropylcellulose) (HPC) 108 % of control | endpoint: mean survival time, dose: 400.0 mg/kg/injection, schedule: Q01DX001 (ip), vehicle: Klucel (hydroxypropylcellulose) (HPC) 97 % of control

OC(CI)C(O)C(O)C(O)CI (configuration not stated)
inactive: endpoint: mean survival time, dose: 25.0 mg/kg/injection, schedule: Q01DX009 (oral), vehicle: other 106 % of control | endpoint: mean survival time, dose: 50.0 mg/kg/injection, schedule: Q01DX009 (oral), vehicle: other 106 % of control | endpoint: mean survival time, dose: 100.0 mg/kg/injection, schedule: Q01DX009 (oral), vehicle: other 95 % of control | endpoint: mean survival time, dose: 200.0 mg/kg/injection, schedule: Q01DX009 (oral), vehicle: other 107 % of control | endpoint: mean survival time, dose: 400.0 mg/kg/injection, schedule: Q01DX009 (oral), vehicle: other 107 % of control | endpoint: mean survival time, dose: 800.0 mg/kg/injection, schedule: Q01DX009 (oral), vehicle: other 124 % of control

CC(=O)NCC(C)C
inactive: [16] 98 % of control | [17] 97 % of control | [18] 104 % of control

Clc1n[nH]c(Cl)n1
inactive: [11] 97 % of control | [12] 100 % of control | [7] 89 % of control | [1] 86 % of control

COc1ccc2c(c1O)C1=CC(=O)CCC13CCN(C)C3C2 (configuration not stated)
inactive: [19] 103 % of control | [20] 96 % of control

O=c1[nH]cnc2nc(C3OC(CO)C(O)C3O)[nH]c12 (configuration not stated)
inactive: endpoint: median survival time, dose: 4.5 mg/kg/injection, schedule: Q01DX005 (ip), vehicle: distilled water + Tween-80 102 % of control | endpoint: median survival time, dose: 9.0 mg/kg/injection, schedule: Q01DX005 (ip), vehicle: distilled water + Tween-80 106 % of control | endpoint: median survival time, dose: 18.0 mg/kg/injection, schedule: Q01DX005 (ip), vehicle: distilled water + Tween-80 98 % of control | endpoint: median survival time, dose: 36.0 mg/kg/injection, schedule: Q01DX005 (ip), vehicle: distilled water + Tween-80 100 % of control | endpoint: median survival time, dose: 72.0 mg/kg/injection, schedule: Q01DX005 (ip), vehicle: distilled water + Tween-80 107 % of control

S=C(Nc1ccccc1)Nc1ccc(NC(=S)Nc2ccccc2)cc1
inactive: [7] 86 % of control | [1] 92 % of control | [2] 92 % of control | [9] 94 % of control | [3] 86 % of control

CC(=O)/C=C(\C)OC1CCCCC1
inactive: [19] 98 % of control | [20] 93 % of control

CC(=O)Nc1cccc(N(CCOS(C)(=O)=O)CCOS(C)(=O)=O)c1
inactive: endpoint: mean survival time, dose: 0.5 mg/kg/injection, schedule: Q01DX009 (ip), vehicle: saline 122 % of control

CC(C)c1cc(C(=O)O)c(O)c(C(C)C)c1.CC(C)c1cc(C(=O)O)c(O)c(C(C)C)c1.[Cu]
inactive: endpoint: median survival time, dose: 6.25 mg/kg/injection, schedule: Q01DX009 (ip), vehicle: saline with Tween-80 100 % of control | endpoint: median survival time, dose: 12.5 mg/kg/injection, schedule: Q01DX009 (ip), vehicle: saline with Tween-80 96 % of control | endpoint: median survival time, dose: 25.0 mg/kg/injection, schedule: Q01DX009 (ip), vehicle: saline with Tween-80 96 % of control

COC(=O)C1(C)CCCC2(C)C3CC(O)C(C(C)C)=CC3(O)CCC12 (configuration not stated)
inactive: [7] 100 % of control | [8] 96 % of control | [9] 86 % of control

CC(C)(C)c1ccc(-c2ccncc2)cc1
inactive: [14] 87 % of control | [15] 105 % of control

CCOC(=O)c1ncc(Cl)cc1N
inactive: [6] 97 % of control

CC(CN=Cc1ccccc1[NH-])N=Cc1ccccc1[NH-].[Ni+2] (configuration not stated)
inactive: endpoint: mean survival time, dose: 6.25 mg/kg/injection, schedule: Q04DX002 (ip), vehicle: saline with Tween-80 94 % of control | endpoint: mean survival time, dose: 12.5 mg/kg/injection, schedule: Q04DX002 (ip), vehicle: saline with Tween-80 94 % of control | endpoint: mean survival time, dose: 25.0 mg/kg/injection, schedule: Q04DX002 (ip), vehicle: saline with Tween-80 97 % of control | [13] 94 % of control and 109 % of control

CCS(=O)(=O)C(CCC#N)(CCC#N)S(=O)(=O)CC
inactive: [16] 95 % of control | [17] 103 % of control

O=C(O)CS(=O)(=O)O
inactive: endpoint: mean survival time, dose: 50.0 mg/kg/injection, schedule: Q04DX002 (ip), vehicle: saline 100 % of control | endpoint: mean survival time, dose: 100.0 mg/kg/injection, schedule: Q04DX002 (ip), vehicle: saline 100 % of control | endpoint: mean survival time, dose: 200.0 mg/kg/injection, schedule: Q04DX002 (ip), vehicle: saline 100 % of control

CN(C)c1n[nH]c(=S)s1
inactive: [1] 100 % of control | [2] 100 % of control | [3] 88 % of control

C/C=C/C(=O)NCC(C(C)C)/[N+]([O-])=N/O (configuration not stated)
inactive: endpoint: mean survival time, dose: 6.25 mg/kg/injection, schedule: Q01DX009 (ip), vehicle: saline with Tween-80 94 % of control | [10] 103 % of control | [11] 94 % of control

Nc1nc2c(ncn2-c2ccc(OCCNC(=O)Nc3ccc(S(=O)(=O)F)cc3)cc2)c(=O)[nH]1
inactive: endpoint: mean survival time, dose: 100.0 mg/kg/injection, schedule: Q01DX001 (ip), vehicle: saline with Tween-80 95 % of control | endpoint: mean survival time, dose: 200.0 mg/kg/injection, schedule: Q01DX001 (ip), vehicle: saline with Tween-80 94 % of control | endpoint: mean survival time, dose: 400.0 mg/kg/injection, schedule: Q01DX001 (ip), vehicle: saline with Tween-80 94 % of control

COC(=O)/C=C/N(Cc1ccccc1)Cc1ccccc1
inactive: [1] 98 % of control | [2] 96 % of control | [3] 94 % of control

Nc1ncnc2c1ncn2C1OC(CO)C(NC(=O)C(N)Cc2ccccc2)C1O (configuration not stated)
inactive: [16] 94 % of control | [17] 92 % of control | [18] 91 % of control

Nc1cc(Cl)c2ncn(C3OC(CO)C(O)C3O)c2n1 (configuration not stated)
inactive: endpoint: mean survival time, dose: 50.0 mg/kg/injection, schedule: Q01DX009 (ip), vehicle: saline 107 % of control | [19] 104 % of control | [20] 104 % of control

C=C(C)CN=C=S
inactive: [1] 98 % of control

Cc1ccc2nc3c(nc2c1)-c1cccc2cccc-3c12
inactive: [7] 92 % of control | [8] 94 % of control | [9] 106 % of control

Cc1ccc([N+](=O)[O-])cc1NC(=O)Nc1onc(C)c1C
inactive: [4] 89 % of control | [5] 95 % of control

From PubChem BioAssay AID256 (DTP/NCI, 2004)
